From patent publication US11752125B2, “Anti-neuroinflammatory and protective compounds in Achillea fragrantissima” (THE STATE OF ISRAEL MINISTRY OF AGRICULTURE & RURAL …, priority 2013, dated 2023)

Tested on: ERK 1/2
Assay: H2O2-induced ERK 1/2 phosphorylation in astrocytes (ELISA)
Assay type: cell-based, rat
Conditions: H2O2 175 μM 40 min; for effect on H2O2-induced phosphorylation of ERK1/2: astrocytes preincubated 2 h
Method: Astrocytes were treated with TTF 2 h before the addition of H2O2. Cells were lysed 40 minutes after the addition of H2O2 in lysis buffer supplied by PathScan sandwich ELISA kit (Cell Signaling TECHNOLOGY) according to the manufacturer's protocol. Protein concentrations in cell lysates were determined by Bradford reagent (Bio-Rad, Hercules, Calif.), and equal amounts of proteins were subjected to ELISA. To measure the amount of total and phosphoSAPK/JNK in cell lysates of astrocytes, ELISA was performed according to the manufacturer's protocol using the PathScan total SAPK/JNK sandwich ELISA kit (Cell Signaling TECHNOLOGY) and the PathScan phospho-SAPK/JNK (Thr183/Tyr185) sandwich ELISA kit (Cell Signaling TECHNOLOGY), respectively. To measure the amount of total and phospho-ERK 1/2 (i.e. phospho-p44/42 MAPK) in cell lysates of astrocytes, ELISA was performed according to the manufacturer's protocol using the PathScan total p44/42 MAPK (ERK 1/2) sandwich ELISA kit (Cell Signaling TECHNOLOGY) and the PathScan phospho-p44/42 MAPK (Thr202/Tyr204) sandwich ELISA kit (Cell Signaling TECHNOLOGY), respectively. To measure the amount of total and phospho-MEK1 in cell lysates of astrocytes, ELISA was performed according to the manufacturer's protocol using the PathScan total MEK1 sandwich ELISA kit (Cell Signaling TECHNOLOGY) and the PathScan phospho-MEK1 (Ser217/221) sandwich ELISA kit (Cell Signaling TECHNOLOGY), respectively. […] The optical density was determined at 450 nm using a microplate reader.
1. […] Determine the optical density at 450 nm using a microplate reader.
Astrocytes were treated with 175 μM of H2O2 for 40 min following preincubation with TTF for 2 h. The levels of phosphorylated and total SAPK/JNK (FIG. 3A), MEK1 (FIG. 3B) and ERK 1/2 (FIG. 3C) were measured by ELISA. […]

| SMILES | inhibition of H2O2-induced phosphorylation of ERK 1/2 (astrocytes pretreated 2 h, total ERK 1/2 not affected) [%] | effect on H2O2-induced phosphorylation of ERK1/2 |
| --- | --- | --- |
| COc1cc(-c2oc3cc(OC)c(OC)c(O)c3c(=O)c2O)ccc1O [TTF, 3,5,4′-trihydroxy-6,7,3′-trimethoxyflavone] | 30 |  |
| C=C1CCC2=C(CO)C(=O)O[C@H]2/C=C(\C)[C@H](OC(C)=O)CC1=O [achillolide A] |  | inhibitory effect |
| CC12CC3CC(C)(C1)CC(N)(C3)C2 [memantine, reference compound] |  | inhibitory effect |
